Measured values: ChEMBL document CHEMBL4339202, “Benzothiophene derivatives as phosphodiesterase 10A (PDE10A) inhibitors: Hit-to-lead studies” (Bioorg Med Chem Lett, 2019)
pIC50: −log10 of the molar value.

Columns and labels:
Mus musculus [1] = species on record: Mus musculus; test: Inhibition of Balb/c mouse liver PDE4 at 30 ug/ml using [3H]cAMP as substrate measured after 2 hrs by topcount method relative to control
Mus musculus [2] = species on record: Mus musculus; test: Inhibition of Balb/c mouse liver PDE2 at 30 ug/ml using [3H]cAMP as substrate measured after 2 hrs in presence of cGMP by topcount method relative to control
Mus musculus [3] = species on record: Mus musculus; test: Inhibition of Balb/c mouse lung PDE5 at 30 ug/ml using [3H]cGMP as substrate measured after 2 hrs by topcount method relative to control
Mus musculus [4] = species on record: Mus musculus; test: Inhibition of Balb/c mouse liver PDE1 at 30 ug/ml using [3H]cAMP as substrate measured after 2 hrs in presence of calmodulin by topcount method relative to control
Phosphodiesterase 7 [5] = target: T1, Phosphodiesterase 7 (Homo sapiens, UniProt Q13946+Q9NP56); test: Inhibition of human MOLT4 cell-derived PDE7 at 30 ug/ml using [3H]cAMP as substrate measured after 2 hrs in presence of rolipram/milrinone by topcount method relative to control; assay type: protein assay
T1 sequence (Q13946 whole entry, looked up): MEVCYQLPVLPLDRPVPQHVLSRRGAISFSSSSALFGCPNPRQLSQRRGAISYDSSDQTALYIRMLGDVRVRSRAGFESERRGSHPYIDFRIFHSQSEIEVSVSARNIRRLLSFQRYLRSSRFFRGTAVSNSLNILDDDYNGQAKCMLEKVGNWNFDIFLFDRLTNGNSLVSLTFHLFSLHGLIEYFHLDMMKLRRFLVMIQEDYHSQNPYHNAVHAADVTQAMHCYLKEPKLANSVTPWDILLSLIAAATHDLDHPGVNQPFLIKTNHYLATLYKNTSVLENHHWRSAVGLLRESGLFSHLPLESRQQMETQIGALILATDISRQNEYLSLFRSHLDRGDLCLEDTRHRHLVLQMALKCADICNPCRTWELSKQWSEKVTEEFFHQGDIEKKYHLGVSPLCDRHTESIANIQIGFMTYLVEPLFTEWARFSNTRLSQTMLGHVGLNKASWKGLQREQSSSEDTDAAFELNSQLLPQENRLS
T1 sequence (Q9NP56 whole entry, looked up): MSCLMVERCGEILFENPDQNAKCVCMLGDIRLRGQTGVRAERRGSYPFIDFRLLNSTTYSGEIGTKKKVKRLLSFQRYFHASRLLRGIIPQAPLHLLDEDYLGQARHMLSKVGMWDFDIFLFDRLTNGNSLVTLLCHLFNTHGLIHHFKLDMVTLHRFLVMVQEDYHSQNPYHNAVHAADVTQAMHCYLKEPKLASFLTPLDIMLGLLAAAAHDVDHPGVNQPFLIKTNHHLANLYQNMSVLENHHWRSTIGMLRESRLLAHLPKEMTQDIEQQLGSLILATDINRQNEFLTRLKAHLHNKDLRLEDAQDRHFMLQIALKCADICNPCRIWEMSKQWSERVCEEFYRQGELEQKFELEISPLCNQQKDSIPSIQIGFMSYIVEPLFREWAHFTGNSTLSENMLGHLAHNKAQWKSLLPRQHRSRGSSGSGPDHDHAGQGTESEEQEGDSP

[6] = target: cAMP and cAMP-inhibited cGMP 3',5'-cyclic phosphodiesterase 10A (Homo sapiens, UniProt Q9Y233); test: Inhibition of human MOLT4 cell-derived PDE10A using [3H]cAMP as substrate measured after 2 hrs in presence of rolipram/milrinone by topcount method
Chain of cAMP and cAMP-inhibited cGMP 3',5'-cyclic phosphodiesterase 10A (Q9Y233 whole entry): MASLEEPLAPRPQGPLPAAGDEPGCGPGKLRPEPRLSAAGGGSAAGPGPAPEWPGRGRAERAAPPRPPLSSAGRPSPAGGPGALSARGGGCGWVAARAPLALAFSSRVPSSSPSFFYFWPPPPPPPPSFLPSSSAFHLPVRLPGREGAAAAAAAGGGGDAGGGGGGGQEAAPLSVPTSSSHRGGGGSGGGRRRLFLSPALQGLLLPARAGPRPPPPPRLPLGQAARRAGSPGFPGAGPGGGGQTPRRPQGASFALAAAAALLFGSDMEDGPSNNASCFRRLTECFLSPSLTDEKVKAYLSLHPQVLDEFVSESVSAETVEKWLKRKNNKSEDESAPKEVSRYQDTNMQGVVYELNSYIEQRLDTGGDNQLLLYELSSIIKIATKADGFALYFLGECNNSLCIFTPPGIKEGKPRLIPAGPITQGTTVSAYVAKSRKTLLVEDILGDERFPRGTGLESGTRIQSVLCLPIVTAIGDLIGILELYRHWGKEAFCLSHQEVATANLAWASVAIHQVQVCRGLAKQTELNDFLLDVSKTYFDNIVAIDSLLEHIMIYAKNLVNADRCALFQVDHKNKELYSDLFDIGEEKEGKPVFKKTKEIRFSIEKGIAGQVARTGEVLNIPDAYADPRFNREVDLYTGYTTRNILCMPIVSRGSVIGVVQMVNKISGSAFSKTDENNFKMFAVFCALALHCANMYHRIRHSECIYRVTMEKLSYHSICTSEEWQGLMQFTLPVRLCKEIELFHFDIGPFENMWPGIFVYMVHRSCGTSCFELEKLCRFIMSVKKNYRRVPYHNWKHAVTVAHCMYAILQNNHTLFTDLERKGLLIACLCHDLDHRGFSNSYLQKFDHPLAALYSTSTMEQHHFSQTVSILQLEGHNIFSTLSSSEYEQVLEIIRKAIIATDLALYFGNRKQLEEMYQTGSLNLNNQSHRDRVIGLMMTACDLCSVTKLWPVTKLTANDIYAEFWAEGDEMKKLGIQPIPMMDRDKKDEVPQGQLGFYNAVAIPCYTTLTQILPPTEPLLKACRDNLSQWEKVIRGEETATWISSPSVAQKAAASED

Phosphodiesterase 7 [7] = target: T1, Phosphodiesterase 7; test: Inhibition of human MOLT4 cell-derived PDE7 using [3H]cAMP as substrate measured after 2 hrs in presence of rolipram/milrinone by topcount method; assay type: protein assay
[8] = Selectivity ratio of IC50 for Balb/c mouse liver PDE1 to IC50 for human MOLT4 cell-derived PDE10A
[9] = Selectivity ratio of IC50 for Balb/c mouse liver PDE2 to IC50 for human MOLT4 cell-derived PDE10A
hERG (KCNH2) = hERG (KCNH2) (Homo sapiens, UniProt Q12809); test: Inhibition of human ERG at 10 uM relative to control
Chain of hERG (KCNH2) (Q12809 whole entry): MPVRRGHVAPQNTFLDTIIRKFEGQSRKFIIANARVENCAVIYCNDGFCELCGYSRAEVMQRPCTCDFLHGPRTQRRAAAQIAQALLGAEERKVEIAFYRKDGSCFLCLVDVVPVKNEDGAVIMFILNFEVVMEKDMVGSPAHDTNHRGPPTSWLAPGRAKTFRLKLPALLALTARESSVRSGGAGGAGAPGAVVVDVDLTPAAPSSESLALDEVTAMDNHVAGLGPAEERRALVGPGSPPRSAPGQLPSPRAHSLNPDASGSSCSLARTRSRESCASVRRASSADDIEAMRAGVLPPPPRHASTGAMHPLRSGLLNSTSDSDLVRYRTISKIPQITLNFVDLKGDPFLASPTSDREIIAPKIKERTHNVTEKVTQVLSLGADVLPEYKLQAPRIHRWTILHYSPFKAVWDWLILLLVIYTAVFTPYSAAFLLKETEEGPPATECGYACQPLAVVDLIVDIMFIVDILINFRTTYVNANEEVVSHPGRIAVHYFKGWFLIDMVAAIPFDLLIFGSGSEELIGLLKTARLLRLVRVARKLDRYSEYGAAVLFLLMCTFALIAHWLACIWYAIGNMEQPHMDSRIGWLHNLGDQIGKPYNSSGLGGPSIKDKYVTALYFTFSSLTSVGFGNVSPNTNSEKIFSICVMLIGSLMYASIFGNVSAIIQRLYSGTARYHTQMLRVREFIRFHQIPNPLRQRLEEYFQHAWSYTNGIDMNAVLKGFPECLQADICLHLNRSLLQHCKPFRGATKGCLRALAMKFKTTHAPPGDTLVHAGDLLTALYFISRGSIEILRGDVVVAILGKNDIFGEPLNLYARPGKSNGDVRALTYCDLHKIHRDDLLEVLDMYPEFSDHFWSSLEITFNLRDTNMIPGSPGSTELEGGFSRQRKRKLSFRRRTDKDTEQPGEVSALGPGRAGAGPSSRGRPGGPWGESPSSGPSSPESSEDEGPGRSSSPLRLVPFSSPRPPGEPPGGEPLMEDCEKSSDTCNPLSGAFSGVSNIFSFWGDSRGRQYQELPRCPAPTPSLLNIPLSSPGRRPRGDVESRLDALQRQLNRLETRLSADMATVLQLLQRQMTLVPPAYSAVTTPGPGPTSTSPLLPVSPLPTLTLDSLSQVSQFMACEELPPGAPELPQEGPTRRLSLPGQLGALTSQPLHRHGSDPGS

[10] = Selectivity ratio of IC50 for Balb/c mouse liver PDE4 to IC50 for human MOLT4 cell-derived PDE10A
Homo sapiens = species on record: Homo sapiens; test: Selectivity ratio of IC50 for human MOLT4 cell-derived PDE7 to IC50 for human MOLT4 cell-derived PDE10A
[11] = Selectivity ratio of IC50 for Balb/c mouse lung PDE5 to IC50 for human MOLT4 cell-derived PDE10A
CYP2D6 = CYP2D6 (Homo sapiens, UniProt P10635); test: Inhibition of CYP2D6 (unknown origin) at 10 uM relative to control; assay type: ADME
Chain of CYP2D6 (P10635 whole entry): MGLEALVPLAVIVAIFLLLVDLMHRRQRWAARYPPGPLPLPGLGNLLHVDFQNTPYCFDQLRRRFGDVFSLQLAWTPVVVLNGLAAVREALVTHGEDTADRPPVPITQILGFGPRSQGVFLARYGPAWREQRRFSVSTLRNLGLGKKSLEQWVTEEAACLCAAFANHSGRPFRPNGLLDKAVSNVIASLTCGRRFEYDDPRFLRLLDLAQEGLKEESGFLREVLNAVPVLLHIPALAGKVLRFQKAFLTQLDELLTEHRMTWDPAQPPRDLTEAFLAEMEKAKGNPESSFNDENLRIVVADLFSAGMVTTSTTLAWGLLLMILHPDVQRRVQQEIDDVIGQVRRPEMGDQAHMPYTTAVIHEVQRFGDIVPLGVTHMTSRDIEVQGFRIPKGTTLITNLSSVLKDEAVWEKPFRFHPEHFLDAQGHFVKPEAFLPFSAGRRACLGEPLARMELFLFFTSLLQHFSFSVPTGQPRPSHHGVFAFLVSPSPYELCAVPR

CYP3A4 = CYP3A4 (Homo sapiens, UniProt P08684); test: Inhibition of CYP3A4 (unknown origin) at 10 uM relative to control; assay type: ADME
Chain of CYP3A4 (P08684 whole entry): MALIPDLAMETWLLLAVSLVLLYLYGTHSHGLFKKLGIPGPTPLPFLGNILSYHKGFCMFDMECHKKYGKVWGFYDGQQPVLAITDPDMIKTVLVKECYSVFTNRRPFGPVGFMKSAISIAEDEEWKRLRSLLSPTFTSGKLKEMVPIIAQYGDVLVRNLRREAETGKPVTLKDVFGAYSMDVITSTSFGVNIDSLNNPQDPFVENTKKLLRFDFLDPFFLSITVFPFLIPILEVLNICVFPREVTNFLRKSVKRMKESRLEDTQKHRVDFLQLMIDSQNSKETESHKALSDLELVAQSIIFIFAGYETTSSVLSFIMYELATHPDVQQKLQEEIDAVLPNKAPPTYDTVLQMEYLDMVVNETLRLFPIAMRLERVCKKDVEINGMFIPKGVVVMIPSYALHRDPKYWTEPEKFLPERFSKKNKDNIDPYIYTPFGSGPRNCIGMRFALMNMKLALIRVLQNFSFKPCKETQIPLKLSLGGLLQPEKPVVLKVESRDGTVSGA

[12] = Inhibition of Balb/c mouse liver PDE1 using [3H]cAMP as substrate measured after 2 hrs in presence of calmodulin by topcount method
[13] = Inhibition of Balb/c mouse liver PDE4 using [3H]cAMP as substrate measured after 2 hrs by topcount method
[14] = Inhibition of Balb/c mouse liver PDE2 using [3H]cAMP as substrate measured after 2 hrs in presence of cGMP by topcount method
[15] = Inhibition of Balb/c mouse lung PDE5 using [3H]cGMP as substrate measured after 2 hrs by topcount method

## O=C(Nc1ccc2ccccc2n1)/C(=C/c1ccccc1)c1ccccc1
Mus musculus [1]
  inhibition: < 25%
Mus musculus [2]
  inhibition: < 25%
Mus musculus [3]
  inhibition: < 25%
Mus musculus [4]
  inhibition: < 25%
Phosphodiesterase 7 [5]
  inhibition: < 25%
[6]
  pIC50: 6.36

## Cc1c(C(=O)Nc2ccc3ccccc3n2)sc2c(I)cccc12
[6]
  pIC50: 6.70

## Cc1c(C(=O)Nc2ccc3ccccc3n2)sc2c(C(N)=O)cccc12
[6]
  pIC50: 7.64

## Cc1c(C(=O)Nc2ccc3ccccc3n2)sc2c(-c3cccnc3)cccc12
[6]
  pIC50: 6.92

## Cc1c(C(=O)Nc2ccc3ccccc3n2)sc2c(-c3ccccn3)cccc12
[6]
  pIC50: 7.21

## CNC(=O)c1cccc2c(C)c(C(=O)Nc3ccc4ccccc4n3)sc12
[6]
  pIC50: 7.64

## O=C(Nc1ccc2ccccc2n1)c1cc2cccc(-c3ccncc3)c2s1
[6]
  pIC50: 7.33

## Cc1c(C(=O)Nc2ccc3ccccc3n2)sc2c(C(=O)N(C)C)cccc12
[6]
  pIC50: 7.36

## CC(=O)c1cccc2c(C)c(C(=O)Nc3ccc4ccccc4n3)sc12
Phosphodiesterase 7 [7]
  IC50: > 10000 nM
[8]
  Ratio IC50: > 1300
[9]
  Ratio IC50: > 1300
hERG (KCNH2)
  inhibition at 10 µM: 10%
[10]
  Ratio IC50: > 1300
Homo sapiens
  Ratio IC50: > 1300
[11]
  Ratio IC50: > 1300
[6]
  pIC50: 8.12
CYP2D6
  inhibition at 10 µM: 0%
CYP3A4
  inhibition at 10 µM: 0%
[12]
  pIC50: < 5.00
[13]
  pIC50: < 5.00
[14]
  pIC50: < 5.00
[15]
  pIC50: < 5.00

## CC(=O)c1ccc(C(C)=O)c2sc(C(=O)Nc3cc(C(C)(C)O)c4ccccc4n3)cc12
[6]
  pIC50: 7.89

## CCc1c(C(=O)Nc2ccc3ccccc3n2)sc2c(-c3ccncc3)cccc12
[6]
  pIC50: 8.28

## Cc1c(C(=O)Nc2ccc3ccccc3n2)sc2c(-c3ccncc3)cccc12
hERG (KCNH2)
  inhibition at 10 µM: 36%
[6]
  pIC50: 8.33
CYP2D6
  inhibition at 10 µM: 45%
CYP3A4
  inhibition at 10 µM: 1%

## Cc1c(C(=O)Nc2ccc3ccccc3n2)sc2c(C#N)cccc12
[6]
  pIC50: 6.96

## O=C(Nc1cc2cccccc-2n1)/C(=C/c1ccccc1)c1ccccc1
Mus musculus [1]
  inhibition: 25 to 50%
Mus musculus [2]
  inhibition: 25 to 50%
Mus musculus [3]
  inhibition: 25 to 50%
Mus musculus [4]
  inhibition: 25 to 50%
Phosphodiesterase 7 [5]
  inhibition: < 25%
[6]
  pIC50: 6.29

## Cc1c(C(=O)Nc2ccc3ccccc3n2)sc2c(-c3ccoc3)cccc12
[6]
  pIC50: 6.49
